Read-outs that look alike come from different tables or passages of the source. Marks after values point to notes of the source that are not given here.
Columns and labels:
[1] = Bidirectional transport (Papp, efflux ratio) of antimalarials through Caco-2 cell monolayers; type: in vitro ADME, human; settings: human; for Papp at 120 min: Caco-2, Caco-2 monolayers
Method: (§1) The initial experiments were conducted in mid-40s passage cells and repeated in early 80s passage Caco-2 cells. […] In order to maintain equivalent transport medium (HBSS/HBSS with inhibitor) level both outside and inside the chambers, 300 μL was used as medium in the apical chambers and 600 μL in the basolateral chambers. […] Drugs were co-incubated with MRCP, BCRP and ATP hydrolysis blockers to determine the involvement of other efflux mechanisms. Prior to the experiment, the transport medium, HBSS or HBSS with P-gp inhibitors were pre-incubated with the cells for 30 minutes. Following incubation, inserts were placed in new well plates and donor chamber is replaced with drug or drug with inhibitor and the receiver chamber with blank HBSS or HBSS with inhibitor. Transport medium was collected from the receiver chamber after stirring at time intervals of 30, 60, 90 and 120 minutes and was replaced with the same volume of fresh HBSS, or HBSS with inhibitor, when P-gp inhibitors were used in the study. At the end of the experiment 100 μL of medium was removed from the donor chamber in addition to medium collected from the receiver chamber during the study. The cells were then washed thoroughly in cold (4°C) PBS and cell membranes attached to the inserts were sonicated for 10 minutes in a sonicating water bath and centrifuged at 10,000 g for 10 minutes. Supernatant was frozen at -80°C until assayed. […] CL.vol=[…].vol = clearance volume (mL), n = time (min), Aa = amount in acceptor compartment at time n (pmols), Cd0 = concentration in donor compartment at time zero (nM), Vd = volume of the donor compartment (mL), Ca = concentration in acceptor compartment at the previous time point (nM), Vs = sample volume of previous time point (mL), Ac = amount of compound associated with the cells (pmol), Nfin = final time point (min). […] The cleared volume was plotted against time and the slope of the regression line was divided by the surface area to obtain the Papp values. […] The method from Davis and colleagues was adopted with slight modifications. Separations were performed using an Apollo C18 (5 μm, 4.6x150mm) column attached to a matched guard column (5 μm, 4.6x5.5 mm). […] The injection volume was 40 μL and column oven was maintained at 35°C. The analytes were detected at 222 nm and the retention time was 5.6 minutes. Assay developed by Pussard and co-workers were used and slight modifications were done to adjust laboratory conditions. Separation was done using a Prevail C18 (3 μm, 4.6x150mm) column attached to a Direct-connect^TM universal column prefilter. The mobile phase consisted of 20 mM (w/v) KH2PO4 in deionized water at pH 3.0 and acetonitrile (82:18) v/v. […] The injection volume was 40 μL and column oven was maintained at 30°C. The analytes were detected at 343 nm with a retention time of 2.4 minutes. […] Separations were performed using an Apollo C18 (5 μm, 4.6x150mm) column attached to matched guard column (5 μm, 4.6x5.5mm). […] The injection volume was 40 μL and column oven was maintained at 30°C. The analytes were detected at 660 nm with a retention time of 3.8 minutes. A 40 μL sample was spiked with 5 μL 0.5 mM artemisinin internal standard. […] The pipettor was adjusted to the maximum volume (100 μL). […] Pre-treated samples were loaded into the tips by gently aspirating and discarding into the same vial. The process was repeated 10 times in order to increase binding efficiency of drugs to the OMIX 96 C4 matrix. […] The LC-MS method described by […] and co-workers were modified to suit the LC-MS-MS conditions. […] Wexford, Ireland) at 40°C. […] Quantitation was performed in multiple reactions monitoring, MRM mode, using DUIS (ESI^+ and APCI^+) ion sources. […] The optimized mass spectra were acquired with an interface voltage of 4.5 kV, a detector voltage of 1.0 kV, a heat block temperature of 500°C and a desolvation temperature of 160°C.

[2] = system: Caco-2 cell monolayers; test: as above; type: in vitro ADME, human
Method: as §1

[3] = cited from earlier work
[4] = system: P-gp; settings: cited from earlier work
[5] = target: T1, P-glycoprotein (P-gp) (Homo sapiens, UniProt P08183); test: Bidirectional transport of rhodamine123 through Caco-2 monolayers co-incubated with antimalarials (P-gp inhibitory properties); type: in vitro ADME
T1 construct: In-vitro Caco-2 cell monolayers were used here as a model for potential drug absorption related problems and P-gp mediated transport of drugs; endogenous in cells; host or cells: Caco-2 (human colon carcinoma, ATCC)
Method: The Caco-2 cells were seeded on 0.6 cm^2 […] Millipore PCF™ filter inserts at the cell density of 65,000 cells/cm^2 as done previously in the lab. Briefly, the cells were grown for 21–24 days to allow full maturation and formation of tight monolayers. The initial experiments were conducted in mid-40s passage cells and repeated in early 80s passage Caco-2 cells. The Trans epithelial electrical resistance (TEER) was measured immediately before and after the experiment using an epithelial voltage/ohm meter and an ENDOHM 12 chamber (World precision instruments, Sarasota, FL). TEER values were measured both before and after the study with readings above 300 Ω.cm^2 considered as acceptable for tight junctions. […] In order to maintain equivalent transport medium (HBSS/HBSS with inhibitor) level both outside and inside the chambers, 300 μL was used as medium in the apical chambers and 600 μL in the basolateral chambers. […] Drugs were co-incubated with MRCP, BCRP and ATP hydrolysis blockers to determine the involvement of other efflux mechanisms. Prior to the experiment, the transport medium, HBSS or HBSS with P-gp inhibitors were pre-incubated with the cells for 30 minutes. Following incubation, inserts were placed in new well plates and donor chamber is replaced with drug or drug with inhibitor and the receiver chamber with blank HBSS or HBSS with inhibitor. Transport medium was collected from the receiver chamber after stirring at time intervals of 30, 60, 90 and 120 minutes and was replaced with the same volume of fresh HBSS, or HBSS with inhibitor, when P-gp inhibitors were used in the study. At the end of the experiment 100 μL of medium was removed from the donor chamber in addition to medium collected from the receiver chamber during the study. The cells were then washed thoroughly in cold (4°C) PBS and cell membranes attached to the inserts were sonicated for 10 minutes in a sonicating water bath and centrifuged at 10,000 g for 10 minutes. Supernatant was frozen at -80°C until assayed. The Papp values of three well plates were determined using methods modified from Artursson’s group as described by Crowe and Lemaire.
CL.vol=Aa/{[Cd0×Vd−[Aa+(Ca×Vs)]−(Ac)×n/nfin]/Vd}
CL.vol = clearance volume (mL), n = time (min), Aa = amount in acceptor compartment at time n (pmols), Cd0 = concentration in donor compartment at time zero (nM), Vd = volume of the donor compartment (mL), Ca = concentration in acceptor compartment at the previous time point (nM), Vs = sample volume of previous time point (mL), Ac = amount of compound associated with the cells (pmol), Nfin = final time point (min). Papp = Apparent permeability (cm/sec) Rate of clearance (mL/min)=CL.vol / n Papp (cm/sec)=Rate of clearance / Surface area (cm^2)
The cleared volume was plotted against time and the slope of the regression line was divided by the surface area to obtain the Papp values. […] Mean Papp for Bas-Ap direction was divided by the Ap-Bas direction to obtain the efflux ratio and values above two were considered as drugs having true efflux transport.

[6] = system: P-gp; settings: 20 μM, 96 hours, Caco-2, western blot vs control
Method: Caco-2 cells were seeded in 6 well plates at 10,000 cells/cm^2 for 21 days. Drugs and drug combinations at 20 μM prepared in cell growth medium were added on to the mature cells and exposed for 96 hours. After drug exposure, cells were washed three times using PBS and cell lysate was prepared in lysis buffer. The protein content was quantified using the 96 well micro-Lowry protein assay and regulation of P-gp was determined using western blotting.
The membrane was blocked using 2% casein in TBS and washed with TBST. The primary antibody; Mdr (G-1) mouse monoclonal IgG2b 200 and mouse anti-β actin were used as the antibody for β-actin, the reference protein. The antibody; HRP linked goat anti mouse IgG was used as the secondary antibody. The washed membrane was incubated in a BioRad clarity chemiluminescent substrate and enhancer was read and semi quantified using the BIORAD Chemidoc MPT imager with Image LabTM software.

[7] = system: Caco-2 intestinal epithelial cells; parameters: method as in PMID 8773952; settings: earlier report ref 53; cited from earlier work
[8] = summary in abstract, methylene blue depending on the direction of transport, read-out: permeability

T1 sequence (P08183 whole entry): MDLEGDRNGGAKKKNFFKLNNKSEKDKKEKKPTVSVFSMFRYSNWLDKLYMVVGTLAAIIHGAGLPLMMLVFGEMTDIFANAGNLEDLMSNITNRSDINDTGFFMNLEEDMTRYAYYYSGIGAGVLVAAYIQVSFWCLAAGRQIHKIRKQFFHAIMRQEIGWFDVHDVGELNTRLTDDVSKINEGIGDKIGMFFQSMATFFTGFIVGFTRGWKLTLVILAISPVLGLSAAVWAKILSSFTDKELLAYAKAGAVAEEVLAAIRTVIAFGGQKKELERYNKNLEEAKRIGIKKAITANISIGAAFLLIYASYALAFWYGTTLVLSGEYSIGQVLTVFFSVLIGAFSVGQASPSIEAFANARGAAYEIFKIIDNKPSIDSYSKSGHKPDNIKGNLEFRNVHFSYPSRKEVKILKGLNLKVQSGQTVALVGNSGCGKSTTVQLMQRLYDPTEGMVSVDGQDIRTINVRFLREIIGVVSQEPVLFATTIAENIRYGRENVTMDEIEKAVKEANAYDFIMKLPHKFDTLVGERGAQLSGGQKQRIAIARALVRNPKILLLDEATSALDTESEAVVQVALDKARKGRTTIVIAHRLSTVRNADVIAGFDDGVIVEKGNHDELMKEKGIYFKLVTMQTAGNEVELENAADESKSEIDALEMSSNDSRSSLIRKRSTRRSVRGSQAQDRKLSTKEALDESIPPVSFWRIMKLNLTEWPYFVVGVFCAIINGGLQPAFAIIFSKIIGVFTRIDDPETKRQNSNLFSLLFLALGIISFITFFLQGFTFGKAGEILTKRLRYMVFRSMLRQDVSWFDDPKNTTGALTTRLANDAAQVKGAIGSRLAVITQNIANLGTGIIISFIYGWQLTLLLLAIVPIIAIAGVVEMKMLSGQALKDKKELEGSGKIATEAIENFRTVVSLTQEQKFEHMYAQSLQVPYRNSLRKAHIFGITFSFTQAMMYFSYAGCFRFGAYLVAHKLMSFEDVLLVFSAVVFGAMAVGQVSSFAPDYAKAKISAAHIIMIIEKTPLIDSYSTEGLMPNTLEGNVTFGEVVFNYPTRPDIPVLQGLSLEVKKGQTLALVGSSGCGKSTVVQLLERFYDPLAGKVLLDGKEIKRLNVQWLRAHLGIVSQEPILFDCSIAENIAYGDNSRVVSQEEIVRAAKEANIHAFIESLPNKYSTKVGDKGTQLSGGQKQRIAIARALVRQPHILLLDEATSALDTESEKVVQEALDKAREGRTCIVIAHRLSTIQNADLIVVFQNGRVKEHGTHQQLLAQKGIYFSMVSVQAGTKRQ

For `CCN(CC)Cc1cc(Nc2ccnc3cc(Cl)ccc23)ccc1O` [AQ, amodiaquine], the Papp at 120 min ([1]; drug alone, read-out: Ap-Bas directional Papp, range over concentrations tested) was 16 to 22 ×10⁻⁶ cm/s, the Papp at 120 min [1, 8] was about 20 ×10⁻⁶ cm/s and the Papp at 120 min, 10 µM ([1]; Caco-2, Conc (μM) + inhibitor (μM): 10, first-named drug measured, read-out: Papp Ap-Bas) was 16 ± 1.1 ×10⁻⁶ cm/s. For the same compound, the Papp B→A at 120 min, 10 µM ([1]; Caco-2, Conc (μM) + inhibitor (μM): 10, first-named drug measured, read-out: Papp Bas-Ap) was 21.5 ± 0.9 ×10⁻⁶ cm/s, the Papp at 120 min, 100 µM ([1]; Caco-2, Conc (μM) + inhibitor (μM): 100, first-named drug measured, read-out: Papp Ap-Bas) was 22.5 ± 2 ×10⁻⁶ cm/s and the Papp B→A at 120 min, 100 µM ([1]; Caco-2, Conc (μM) + inhibitor (μM): 100, first-named drug measured, read-out: Papp Bas-Ap) was 23.3 ± 0.8 ×10⁻⁶ cm/s. For the same compound, the Net flow direction ([2]; Conc (μM) + inhibitor (μM): 10) was “Efflux (0.02) ^*”, the Net flow direction ([2]; Conc (μM) + inhibitor (μM): 100) was “Diffusion (0.74)” and the tmax ([3]; oral administration in human ref 46) was under 1 h. For the same compound, the P-gp inhibitory properties ([4]; at 100 and 1000 μM ref 38) was “P-gp inhibitory properties”.

With `C[C@H]1[C@H](OC(=O)CCC(=O)O)O[C@@H]2O[C@@]3(C)CC[C@H]4[C@H](C)CC[C@@H]1[C@@]24OO3` [ART, artesunate] the P-gp inhibitory properties ([5]; at 100 μM) was “did not exhibit P-gp inhibitory properties”, the P-gp inhibitory properties ([5]; at test concentrations) was “did not exhibit P-gp inhibitory properties” and the Papp at 120 min ([1]; read-out: permeability across the gastrointestinal epithelium (class)) was 1 to 25 ×10⁻⁶ cm/s. It also gave a Papp at 120 min [1, 8] of about 10 ×10⁻⁶ cm/s, an efflux ratio at 120 min, 50 µM ([1]; Caco-2, Conc (μM) + inhibitor (μM): 50, Bas-Ap divided by Ap-Bas) of 1.5 and a Papp at 120 min, 50 µM ([1]; Caco-2, Conc (μM) + inhibitor (μM): 50, first-named drug measured, read-out: Papp Ap-Bas) of 10.2 ± 0.3 ×10⁻⁶ cm/s. The Papp B→A at 120 min, 50 µM ([1]; Caco-2, Conc (μM) + inhibitor (μM): 50, first-named drug measured, read-out: Papp Bas-Ap) was 12.3 ± 0.1 ×10⁻⁶ cm/s, the Net flow direction ([2]; Conc (μM) + inhibitor (μM): 50) was “Efflux (0.002) ^*” and the Efflux ratio ([2]; Conc (μM) + inhibitor (μM): 50, Bas-Ap divided by Ap-Bas) was 1.2. The “regulation of P-gp expression” value [6] was “slight up regulation of P-gp”.

For `CN(C)c1ccc2nc3ccc(=[N+](C)C)cc-3sc2c1` [MB, methylene blue], the oral bioavailability ([3]; human volunteers, 100 mg ref 51) is given as 10%.

For `C/C=C/C[C@@H](C)C(=O)[C@H]1C(=O)N[C@@H](C(C)C)C(=O)N(C)CC(=O)N(C)[C@@H](CC(C)C)C(=O)N[C@@H](C(C)C)C(=O)N(C)[C@@H](CC(C)C)C(=O)N[C@@H](C)C(=O)N[C@H](C)C(=O)N(C)[C@@H](CC(C)C)C(=O)N(C)[C@@H](CC(C)C)C(=O)N(C)[C@@H](C(C)C)C(=O)N1C` [PSC-833, PSC 833], the P-gp transport inhibition ([4]; at 4 μM ref 19) is listed as “completely eradicate P-gp mediated transport”.

For `COC(=O)c1ccccc1-c1c2ccc(=N)cc-2oc2cc(N)ccc12` [Rh123, rhodamine123], the “Efflux ratio of rh123” value ([5]; 5 μM rh123, 100 μM antimalarial drugs section) was 4.7, the efflux ratio at 120 min, 5 µM ([5]; human, Caco-2, probe rhodamine 123, 5 μM rh123, 100 μM antimalarial drugs section) was about 5 and the efflux ratio at 120 min, 5 µM ([5]; human, Caco-2, probe rhodamine 123, 5 μM rh123, 300 μM antimalarial drugs section) was 5.7. The Papp at 120 min, 5 µM ([5]; human, Caco-2, probe rhodamine 123, 5 μM rh123, 300 μM antimalarial drugs section, read-out: Papp of rh123 Ap-Bas) was 0.5 ± 0.1 ×10⁻⁶ cm/s.

In the case of `C[C@H]1[C@H](OC(=O)CCC(=O)[O-])O[C@@H]2O[C@@]3(C)CC[C@H]4[C@H](C)CC[C@@H]1[C@@]24OO3.[Na+]` [sodium artesunate], the Papp [7] is given as 4 ×10⁻⁶ cm/s.

Reference: PMC4821601, “The Interactions of P-Glycoprotein with Antimalarial Drugs, Including Substrate Affinity, Inhibition and Regulation” (PLoS ONE, 2016)
